{"source": "patent US6395896B2", "about": "“Pyridazine derivatives, manufacturing method and related composition” (Shiseido Co., Ltd., priority 1999, dated 2002)", "key": {"skin (face)": {"system": "skin (face)", "assay": "Skin irritation test: continuous use test", "format": "in vivo, human", "details": "10 wt % ultraviolet absorbent, twice a day for 4 weeks", "procedure": "Sample (10 wt % of ultraviolet absorbent) is the same as test example 2. The continuous use test by the healthy subjects was carried out with one group of twenty subjects. A proper amount of each sample was applied to the face twice a day for 4 weeks. The evaluation standard of Table 5 was judged. [table] The calculated average score was evaluated by the next standard. A: Average score is 0. B: Average score is over 0 and less than 1. C: Average score is 1 or more, and less than 2. D: Average score is 2 or more."}, "skin (antebrachium)": {"system": "skin (antebrachium)", "assay": "Skin irritation test: occlusive patch test", "format": "in vivo, human", "details": "10 wt % ultraviolet absorbent, occlusive patch 24 hours", "procedure": "Sample (10 wt % of ultraviolet absorbent) is the same as test example 2. An occlusive patch test was carried out in the antebrachium part of healthy men and women subjects by finchamber for 24 hours. Each group was twenty subjects. [table] Each of the calculated average scores was evaluated by the following evaluation standard. A: average score is 0. B: average score is over 0 and less than 1. C: average score is 1 or more and less than 2. D: average score is 2 or more."}, "[1]": {"assay": "Photostability test (aqueous solution exposed to sunlight)", "format": "physicochemical", "details": "sunlight 80 MJ/m^2, two weeks", "procedure": "After an aqueous solution of the pyridazine derivative of the present invention was exposed to sunlight (Amount of solar radiation exposure 80 MJ/m^2) for two weeks, residual yield and change of appearance were checked. UV absorption spectrum (Solvent: water, concentration: 10 ppm, Light path: 1 cm) was measured by spectrophotometer. Area value was calculated by integrating over the range of 290 nm to 400 nm of the ultraviolet rays absorption spectrum. The area value was compared with the value before sunlight exposure.\nThe residual yield and change of area value of ultraviolet rays absorption spectrum were evaluated by the following standard.\nA: 95% or more of area value before sunlight exposure.\nB: 90% or more and less than 95% of area value before sunlight exposure.\nC: 70% or more and less than 90% of area value before sunlight exposure.\nD: less than 70% of area value before sunlight exposure."}}}
{"smiles": "Oc1nncc(N2CCOCC2)c1N1CCOCC1", "note": "[4,5-Dimorpholino-3-hydroxypyridazine]", "values": [{"measurement": "Judgment (continuous use test, average skin reaction score)", "setting": "skin (face); Cream", "value": "A (Average score is 0.)"}, {"measurement": "Judgment (continuous use test, average skin reaction score)", "setting": "skin (face); Lotion", "value": "A (Average score is 0.)"}, {"measurement": "Judgment (patch test, average skin reaction score)", "setting": "skin (antebrachium); Cream", "value": "A (average score is 0.)"}, {"measurement": "Judgment (patch test, average skin reaction score)", "setting": "skin (antebrachium); Lotion", "value": "A (average score is 0.)"}, {"measurement": "Residual yield", "setting": "[1]", "value": "A (95% or more of area value before sunlight exposure.)"}, {"measurement": "Change of area value of UV absorption spectrum", "setting": "[1]; 290 nm to 400 nm", "value": "A (95% or more of area value before sunlight exposure.)"}, {"measurement": "melting point", "value": "256 to 257 °C (dec.)"}]}
